From US6962933B1, “Method for inhibiting p38 MAP kinase or TNF-α production using a 1,3-thiazole” (Takeda Pharmaceutical Company Limited, priority 1999, dated 2005) come the findings set out here.

A word on the melting point: it is the temperature, or range, at which the solid turns liquid.

Structures are written as SMILES.

In one data set the test system is TNF-α production. The data set is described as follows: Inhibiting activity of TNF-α production in LPS-stimulated THP-1 cells (ELISA). The data set is classed as cell-based. The settings on record: Homo sapiens, LPS 5 μg/mL, 4 hours, TNF-α in supernatant by ELISA, read-out: IC50 (concentration necessary for inhibiting TNF-α production by 50%). On the procedure: Measurement of inhibiting activity of TNF-α production
After THP-1 cells which had been cultured on PRMI 1640 medium (manufactured by Life Technologies, Inc.) containing 1% inactivated bovine fetal serum (manufactured by Life Technologies, Inc., U.S.A.) and 10 mM HEPES (pH 7.5) seeded on a 96-well plate to 1×10^5 cells/well, 1 μL test compound dissolved in DMSO was added. After incubation at 37° C. for 1 hour in a CO2 incubator, LPS (Wako Pure Chemicals) was added to the final concentration 5 μg/mL. After cultured at 37° C. for 4 hours in a CO2 incubator, the supernatant was obtained by centrifugation. The concentration of TNF-α in the supernatant was measured by ELISA (R&D Systems, Quantikine Kit). The concentration (IC50 value) of the test compound necessary for inhibiting TNF-α production by 50% was calculated using PRIMS 2.01 (Graphpad Software).
In general terms: ELISA stands for enzyme-linked immunosorbent assay.

Consider `Cc1cccc(-c2nc(N)sc2-c2ccncc2)c1` [Reference Example 23-60, [4-(3-methylphenyl)-5-(4-pyridyl)-1,3-thiazol-2-yl]amine], for which the melting point was 255 to 258 °C. Further, the IC50 with TNF-α production was found to be 46 nM.

Molecule `CNc1nc(-c2ccc(Cl)cc2)c(-c2ccncc2)s1` [Reference Example 13-70, N-methyl [4-(4-chlorophenyl)-5-(4-pyridyl)-1,3-thiazol-2-yl]amine] gave a melting point of 224 to 225 °C. Further, in the data set with TNF-α production, the IC50 was 180 nM.

On to `CNc1nc(-c2ccc(OC)cc2)c(-c2ccncc2)s1` [Reference Example 13-16, N-methyl [4-(4-methoxyphenyl)-5-(4-pyridyl)-1,3-thiazol-2-yl]amine], for which the melting point fell in the range of 177 to 178 °C. Moreover, the IC50 with TNF-α production was 140 nM.

On to `CCNC(=O)Nc1nc(-c2ccc(OC)cc2)c(-c2ccncc2)s1` [Reference Example 23-156, N-ethyl-N′-[4-(4-methoxyphenyl)-5-(4-pyridyl)-1,3-thiazol-2-yl]urea], for which the melting point fell in the range of 224 to 226 °C.

`COc1ccc(-c2nc(-c3ccc(SC)cc3)sc2-c2ccncc2)cc1` [Reference Example 23-300, methyl 4-[2-[4-(methylthio)phenyl]-5-(4-pyridyl)-1,3-thiazol-4-yl]phenyl ether] came in with a melting point of 127 to 128 °C.

Take `CNc1nc(-c2ccc3c(c2)CCC3)c(-c2cccnc2)s1` [13-74]: the melting point fell in the range of 172 to 173 °C.

`COc1ccc(-c2nc(NC(=O)Nc3ccccc3)sc2-c2ccncc2)cc1` [Reference Example 23-296, N-[4-(4-methoxyphenyl)-5-(4-pyridyl)-1,3-thiazol-2-yl]-N′-phenylurea] had a melting point of 217 to 219 °C.

Turning to `COc1ccc(-c2nc(NC(C)C)sc2-c2ccncc2)cc1` [Reference Example 23-291, N-isopropyl-[4-(4-methoxyphenyl)-5-(4-pyridyl)-1,3-thiazol-2-yl]amine], the melting point lay within 161 to 163 °C.

On to `CNc1nc(-c2ccc(F)cc2)c(-c2ccncc2)s1` [Reference Example 13-69, N-methyl [4-(4-fluorophenyl)-5-(4-pyridyl)-1,3-thiazol-2-yl]amine], for which the melting point fell in the range of 205 to 206 °C.
